Consider 20 molecules from patent publication US7550492B2, “Benzo[1,2,5]thiadiazole compounds” (Janssen Pharmaceutica N.V., priority 2003, dated 2009).

Where a name gives a salt, the structure may show the parent alone.

Broadly, the melting point is the temperature, or range, at which the solid turns liquid. The term pKi denotes the Ki on a negative log10 scale, so that one unit is a factor of ten. The low end stands for a large Ki, the high end for a small Ki. A word on the Ki: it is the dissociation constant of the complex between target and ligand, obtained from inhibition or displacement. Read a low Ki as a stronger hold on the target.

Test system in one data set: not given
Experiment: not given
Settings: not given
For `O=C(c1cc(Cl)c(Cl)cc1NS(=O)(=O)c1cccc2nsnc12)N1CCCCC1` [Example 36, Benzo[1,2,5]thiadiazole-4-sulfonic acid [4,5-dichloro-2-(piperidine-1-carbonyl)-phenyl]-amide], the melting point is 178 to 179 °C. Still for that read-out and setting: under `CC(C)c1ccc(C(=O)N2CCCCC2)c(NS(=O)(=O)c2cccc3nsnc23)c1` [Example 37, Benzo[1,2,5]thiadiazole-4-sulfonic acid [5-isopropyl-2-(piperidine-1-carbonyl)-phenyl]-amide] stands 125 to 127 °C.

The target of another data set is T1, CCK2 receptor (Homo sapiens, UniProt P32239).
T1 construct: Membranes were prepared from the HEKZFP cells after induction; endogenous in cells
T1 sequence (P32239 1-447): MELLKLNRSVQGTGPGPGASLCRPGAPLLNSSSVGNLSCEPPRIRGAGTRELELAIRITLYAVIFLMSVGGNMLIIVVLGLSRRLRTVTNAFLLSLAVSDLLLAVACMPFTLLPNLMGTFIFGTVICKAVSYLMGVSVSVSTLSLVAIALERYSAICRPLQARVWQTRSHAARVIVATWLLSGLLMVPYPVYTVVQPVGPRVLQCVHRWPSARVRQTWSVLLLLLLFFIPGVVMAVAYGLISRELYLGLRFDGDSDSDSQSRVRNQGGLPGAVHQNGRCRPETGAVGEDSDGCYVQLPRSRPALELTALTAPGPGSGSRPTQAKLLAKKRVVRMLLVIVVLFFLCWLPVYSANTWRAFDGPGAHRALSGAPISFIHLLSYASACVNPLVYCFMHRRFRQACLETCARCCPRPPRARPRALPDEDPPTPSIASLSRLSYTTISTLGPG
Kind of data set: Binding Assay: competition with [125I]-BH-CCK-8S in HEKZFP cell membranes. As to conditions: 60 min at 21±3° C., Cheng-Prusoff. As for the experimental part:
Zinc Finger Proteins (ZFP) specific for the CCK2R gene were identified by Sangamo Biosciences. The ZFP domain was fused with the herpes simplex virus VP16 activation domain, and the fusion protein was subsequently cloned into the pcDNA3 mammalian expression vector (Invitrogen, San Diego, Calif.). Tet-inducible cell lines expressing the coding region from the ZFP vector were created using the T-REx-293™ cell line (Invitrogen). After 2 weeks of selection in culture medium containing […] Zeocin (Invitrogen), sixty drug-resistant stable clones were isolated and analyzed for ZFP expression as well as CCK2R induction upon addition of doxycycline to the culture medium. The cell line with the most appropriate CCK2R ZFP construct was used in all further assays and was termed the HEKZFP cell line.
HEKZFP cells were grown in DMEM supplemented with L-glutamine (2 mM), penicillin (50 units/mL) and streptomycin (50 μg/mL) and 10% FBS (v/v). HEKZFP cells were treated with […] doxycycline (Sigma-Aldrich, MO; USA) for 2 days to de-repress the tet-regulated expression of the CCK2 receptor selective zinc finger proteins and were harvested using a rubber cell scraper.
Membranes were prepared from the HEKZFP cells after induction. Frozen cell pellets (−40° C.) were thawed in 14 mL of buffer A (10 mM HEPES, 130 mM NaCl, 4.7 mM KCl, 5 mM MgCl, 1 mM EGTA and 15.4 mg/100 mL bacitracin at pH 7.2), adapted from E. A. Harper et al. (Br. J. Pharmacol. (1996) 118(7):1717-1726). The thawed pellets were homogenized using a Polytron PT-10 (7×1 s). The homogenates were centrifuged for 5 min at 1500 rpm (600×g), and the resulting pellets were discarded. The supernatants were re-centrifuged in order to collect the receptor-membrane pellets (25 min 15,000 rpm; 39,000×g), which were re-suspended in buffer A.
All assays were conducted in 96-well plate (GF/B millipore filter plates) using buffer A. For the optimal cell number determination experiments, cells in concentrations ranging from 2.5×10^5 to 12.5×10^5 cells/well were incubated with 20 pM [^125I]-BH-CCK-8S (50 μL 60 pM) solution) in a total volume of 150 μL. Total binding of [^125I]-BH-CCK-8S was determined in the presence of 15 μL of buffer A. Non-specific binding of [^125I]-BH-CCK-8S was determined in the presence of 15 μL of 10 μM YF476, a CCK-2 receptor selective antagonist that is structurally unrelated to the radioligand [^125I]-BH-CCK-8S. The assay preparation was incubated for 1 h at 21±3° C., and then the assay was terminated by rapid filtration of the preparation under reduced pressure. The loaded filters were washed three times using undiluted PBS (100 μL), and then 100 μL of scintillation fluid was added to the filter plate. Bound radioactivity was determined using a Topcount (Packard BioScience, Meriden, Conn.) with a count time of 1 min. From these experiments a cell concentration of 1 pellet in 15 mL of buffer was chosen for use in other assays. To validate the radioligand concentration and incubation time for the assay, saturation and kinetic binding studies were also conducted (see M. F. Morton, The Pharmacological Characterization of Cholecystokinin Receptors in the Human Gastrointestinal Tract. PhD Thesis, University of London, 2000). […] The assay was then terminated according to the procedure outlined above.
The pKi values were determined using the equation of Y.-C. Cheng and W. H. Prusoff (Biochem. Pharmacol., 1973, 22(23):3099-3108):
To circumvent problems associated with computer-assisted data analysis of compounds with low affinity, the data obtained in the current study were weighted according to a method described by Morton. In brief, 100% and 0% specific binding were defined independently using total binding and binding obtained in the presence of a high concentration of the reference antagonist, 2-NAP.
In the case of `O=C(c1ccc([N+](=O)[O-])cc1NS(=O)(=O)c1cccc2nsnc12)N1CCCCC1` [Example 2, Benzo[1,2,5]thiadiazole-4-sulfonic acid [5-nitro-2-(piperidine-1-carbonyl)-phenyl]-amide], the pKi is recorded as 6.8. In turn, `O=C(c1cc2ccccc2cc1NS(=O)(=O)c1cccc2nsnc12)N1CCCCC1` [Example 4, Benzo[1,2,5]thiadiazole-4-sulfonic acid [3-(piperidine-1-carbonyl)-naphthalen-2-yl]-amide] showed a Ki of 100 nM.

Molecule `O=C(c1ccc(I)cc1NS(=O)(=O)c1cccc2nsnc12)N1CCCCC1` [Example 6, Benzo[1,2,5]thiadiazole-4-sulfonic acid [5-iodo-2-(piperidine-1-carbonyl)-phenyl]-amide] showed a Ki of 3.98 nM. Still for that read-out and setting: then `O=C(c1ccc(-c2cccs2)cc1NS(=O)(=O)c1cccc2nsnc12)N1CCCCC1` [Example 22, Benzo[1,2,5]thiadiazole-4-sulfonic acid [2-(piperidine-1-carbonyl)-5-thiophen-2-yl-phenyl]-amide], with 200 nM.

Molecule `O=C(c1cc(Cl)c(Cl)cc1NS(=O)(=O)c1cccc2nsnc12)N1CCCCC1` [Example 36, Benzo[1,2,5]thiadiazole-4-sulfonic acid [4,5-dichloro-2-(piperidine-1-carbonyl)-phenyl]-amide] had a pKi of 7.8. In turn, `CN(C)CC(c1ccccc1)N(C)C(=O)c1ccc(Cl)cc1NS(=O)(=O)c1cccc2nsnc12` (stereo not drawn) [Example 48, 2-(Benzo[1,2,5]thiadiazole-4-sulfonylamino)-4-chloro-N-(2-dimethylamino-1-phenyl-ethyl)-N-methylbenzamide TFA salt] had a Ki of 398 nM. Same read-out and setting: under `CN(C(=O)c1ccc(Cl)cc1NS(=O)(=O)c1cccc2nsnc12)c1ccccc1` [Example 58, 2-(Benzo[1,2,5]thiadiazole-4-sulfonylamino)-4-chloro-N-methyl-N-phenyl-benzamide] stands 126 nM; under `CCCCNC(=O)c1ccc(Cl)cc1NS(=O)(=O)c1cccc2nsnc12` [Example 59, 2-(Benzo[1,2,5]thiadiazole-4-sulfonylamino)-N-butyl-4-chloro-benzamide], 631 nM. For `CC1CCCCN1C(=O)c1ccc(Cl)cc1NS(=O)(=O)c1cccc2nsnc12` (stereo not drawn) [Example 70, Benzo[1,2,5]thiadiazole-4-sulfonic acid [5-chloro-2-(2-methyl-piperidine-1-carbonyl)-phenyl]-amide], the pKi is recorded as 7.5. Same read-out and setting: under `O=C(c1ccc(Cl)cc1NS(=O)(=O)c1cccc2nsnc12)N1CCSC1` [Example 79, Benzo[1,2,5]thiadiazole-4-sulfonic acid [5-chloro-2-(thiazolidine-3-carbonyl)-phenyl]-amide] stands 7.1. Regarding `CC(c1ccc(F)cc1)N(C)C(=O)c1ccc(I)cc1NS(=O)(=O)c1cccc2nsnc12` (stereo not drawn) [Example 105, 2-(Benzo[1,2,5]thiadiazole-4-sulfonylamino)-N-[1-(4-fluoro-phenyl)-ethyl]-4-iodo-N-methyl-benzamide], the affinity, expressed as Ki, was 10 nM. The same measure, in the same setting: under `CN(Cc1ccc(F)cc1F)C(=O)c1ccc(Br)cc1NS(=O)(=O)c1cccc2nsnc12` [Example 111, 2-(Benzo[1,2,5]thiadiazole-4-sulfonylamino)-4-bromo-N-(2,4-difluoro-benzyl)-N-methyl-benzamide] stands 15.8 nM; under `CC(c1ccc(F)cc1)N(C)C(=O)c1ccc(Br)cc1NS(=O)(=O)c1cccc2nsnc12` (stereo not drawn) [Example 112, 2-(Benzo[1,2,5]thiadiazole-4-sulfonylamino)-4-bromo-N-[1-(4-fluoro-phenyl)-ethyl]-N-methyl-benzamide], 5.01 nM; under `CON(C)C(=O)c1ccc(Br)cc1NS(=O)(=O)c1cccc2nsnc12` [Example 117, 2-(Benzo[1,2,5]thiadiazole-4-sulfonylamino)-4-bromo-N-methoxy-N-methyl-benzamide], 398 nM. On the same count and under the same terms, then `C[C@H](c1ccccc1)N(C)C(=O)c1cc(Cl)ccc1NS(=O)(=O)c1cccc2nsnc12` [Example 118, (R)-2-(Benzo[1,2,5]thiadiazole-4-sulfonylamino)-5-chloro-N-methyl-N-(1-phenyl-ethyl)-benzamide], with 126 nM.

For `O=C(c1ccc(I)cc1NS(=O)(=O)c1cccc2nsnc12)N1CCOCC1` [Example 138, Benzo[1,2,5]thiadiazole-4-sulfonic acid [5-iodo-2-(morpholine-4-carbonyl)-phenyl]-amide], the pKi was found to be 7.5. `C[C@@H](NC(=O)c1ccc(Br)cc1NS(=O)(=O)c1cccc2nsnc12)c1ccc(F)cc1F` [Example 155] gave a Ki of 25.1 nM. Same read-out and setting: then `Cc1ccc(C(=O)N[C@H](C)c2ccc(F)cc2F)c(NS(=O)(=O)c2cccc3nsnc23)c1` [Example 167, (R)-2-(Benzo[1,2,5]thiadiazole-4-sulfonylamino)-N-[1-(2,4-difluoro-phenyl)-ethyl]-4-methyl-benzamide], with 25.1 nM; and `C[C@H](c1ccccc1)N(C)C(=O)c1ccc(C(F)(F)F)cc1NS(=O)(=O)c1cccc2nsnc12` [Example 195, (R)-2-(Benzo[1,2,5]thiadiazole-4sulfonylamino)-N-methyl-N-(1-phenyl-ethyl)-4-trifluoromethyl-benzamide], with 7.94 nM.
